Converted amounts (≈) assume the structure as drawn. Like-named read-outs stand apart in the source and are kept apart here.
Key:
[1] = test system: A. laidlawii PG8; test: Anti-mycoplasmal activity (MIC), agar-dilution method; type: cell-based; conditions: Acholeplasma laidlawii
Protocol: (§1) The minimum growth inhibitory concentrations (MIC; μg/ml) of the test chemicals were measured by the agar-dilution method.
(§2) (1) Preparation of a mycoplasma suspension for inoculation
(§3) A stored frozen suspension of mycoplasma (0.2 to 0.3 ml) was inoculated in 2 to 3 ml of a preculture medium to be described later. It was serially diluted tenfold until the dilution ratio reached 10,000 times. These diluted solutions were cultivated at 37° C. for 2 to 7 days. A culture having the highest dilution ratio was selected from those cultures in which a color change of the media was noted as a result of mycoplasma growth. It was diluted to 100 times with the preculture medium to prepare a mycoplasma suspension for inoculation.
(§4) The following preculture media were used.
(§5) For Mycoplasma pneumoniae and Acholeplasma laidlawii, Chanock liquid medium containing 0.5% glucose (pH 7.8) [Library of Bacteriology 2, "Procedures for Isolation and Identification of Human, Animal and Plant Mycoplasmas", edited by Japanese Society for Bacteriology, page 8 (1982), Saikon Publishing Co.] was used.
(§6) (2) Preparation of agar plates containing the test chemicals
(§7) A 1,000 μg/ml aqueous solution of each test chemical was prepared (a difficultly-soluble chemical was dissolved by adding an equimolar amount of sodium hydroxide; the same applies hereinafter). The solution was used as a base solution and its twofold serial dilutions were prepared. The diluted solutions were pipetted on plastic petri dishes each in an amount of 1 ml. The Chanock agar medium (for Mycoplasma hyorhinis, 0.5% mucin was further added) described at page 9 of the above cited "Procedures for Isolation and Identification of Human, Animal and Plant Mycoplasmas" was heated and kept at 55° C. and put in an amount of 9 ml in each of the petri dishes containing the test chemicals and fully mixed with the test chemicals to prepare agar plates containing the test chemicals.
(§8) The mycoplasma suspension for inoculation prepared by the procedure described in section (1) was inoculated in an amount of about 3 microliters on each of the chemical-containing agar plates by means of a Cathra-replicator (3 mm pin). The plates on which Mycoplasma pneumoniae, Mycoplasma arginini, and Acholeplasma laidlawii and Mycoplasma hyorhinis were inoculated were tightly packed in a plastic bag together with the plasic petri dishes including water-immersed absorbent cotton. Mycoplasma pneumoniae was aerobically cultivated at 37° C. under highly humid conditions for 7 days; and Mycoplasma arginini and Acholeplasma laidlawii, for 2 days. The other mycoplasma species were cultivated anaerobically for 2 days by using a GasPak anaerobic system (BBL). After the cultivation, growth of mycoplasma were observed under an OLYMPUS microscope (20-100 X). The lowest concentration of the test chemical at which no growth of mycoplasma was noted is defined as MIC.

[2] = test system: M. arginini G-230; test: Anti-mycoplasmal activity (MIC, MMC), liquid dilution method; type: cell-based, Mycoplasma arginini; conditions: Mycoplasmopsis arginini
Protocol: (§9) The minimum growth inhibitory concentration (MIC, μg/ml) and minimum mycoplasmacidal concentration (MMC, μg/ml) of test chemicals were measured by the liquid dilution method. The method of measuring MIC in this example differs from that used in Test Example 1.
(§10) A 1,000 μg/ml aqueous solution of a test chemical was prepared, and diluted to 5 times with a preculture medium. The dilution (200 μg/ml) was serially diluted twofold with the same medium in a 8-well reservoir. Fifty microliters of each diluted solution was distributed in the wells of a microplate. A well to which no test chemical was added was used as a control.
(§11) A mycoplasma suspension for inoculation prepared as in Test Example 1 was pipetted in an amount of 50 microliters to each of the wells. The microplates were sealed by a plate seal, shaken by a micromixer, and cultivated at 37° C. for 5 days. In the control to which no test chemical was added, color change of the medium by the growth of mycoplasma was observed after two days from the start of the cultivation. At this time, 3 microliters of the liquid culture was inoculated in drug-free Chanock agar medium by using a Cathra-replicator. The liquid culture and the agar medium were further cultivated at 37° C. for 3 days (anaerobically in the case of M. orale, and aerobically in the case of A. laidlawii and M. arginini). MIC and MMC were determined from the results of observation on the 5th day. MIC was defined as the lowest concentration of the test chemical at which growth of mycoplasma in the drug-containing liquid medium was not noted, and MMC, as that in the drug-free agar medium.

[3] = test system: M. orale CH19299; test: Anti-mycoplasmal activity (MIC), agar-dilution method; type: cell-based, Mycoplasma orale; conditions: Metamycoplasma orale
Protocol: as §1, §2, §3, §4
(§12) For other mycoplasma species, Chanock liquid medium (pH 6.8) containing 0.2% arginine was used.
as §6, §7, §8

[4] = test system: FL human-amnion cells; test: Cytotoxicity on FL cells (cell proliferation inhibition); type: cell-based; conditions: Homo sapiens, 72 h, read-out: IC50 (50% cell proliferation inhibitory concentration)
Protocol: Whether test chemicals would inhibit growth of cells was examined.
A 1,000 μg/ml aqueous solution of each of the test chemicals was serially diluted twofold with Eagle's minimum essential medium.
FL human-amnion cells (2×10^4 cells) were suspended in 3.6 ml of 10% FBS-MEM medium, put in petri dishes (diameter 60 mm) for tissue culture, and cultivated at 37° C. in 5% CO2 humidified atmosphere for 48 hours. The test chemical solution prepared as above was added in an amount of 0.4 ml to each of the petri dishes in predetermined concentrations, and the cells were cultivated for 3 days. After the cultivation, the medium was removed, and the remainder was washed once with Dulbecco's phosphate buffer (pH 7.4). The cells were peeled off by adding 0.2 ml of a 2.5% trypsin-0.002% EDTA mixed solution (1:9) and properly diluted with 10% FBS-MEM medium. Then, the number of the cells was counted by an Erma hemocytometer.
The cell proliferation rate was calculated by following formula [formula]

[5] = test system: M. orale CH-19299; test: Anti-mycoplasmal activity (MIC, MMC), liquid dilution method; type: cell-based, Mycoplasma orale; conditions: Metamycoplasma orale
Protocol: as §9, §10, §11

[6] = test system: M. pnumoniae Mac; test: Anti-mycoplasmal activity (MIC), agar-dilution method; type: cell-based, Mycoplasma pneumoniae; conditions: Mycoplasma
Protocol: as §1, §2, §3, §4, §5, §6, §7, §8

[7] = test system: M. hyorhinis BST7; test: as above; type: cell-based, Mycoplasma hyorhinis; conditions: Mesomycoplasma hyorhinis
Protocol: as §1, §2, §3, §4
For Mycoplasma hyorhinis, a liquid medium (pH 7.8) for isolation of Mycoplasma hyorhinis [Journal of the Japan Veterinary Medical Association,32, 34-38 (1979)] was used.
as §6, §7, §8

[8] = test system: M. salivarium PG20; test: as above; type: cell-based, Mycoplasma salivarium; conditions: Metamycoplasma salivarium
Protocol: as §1, §2, §3, §4, §12, §6, §7, §8

[9] = test system: M. arginini G230; test: as above; type: cell-based, Mycoplasma arginini; conditions: Mycoplasmopsis arginini
Protocol: as §1, §2, §3, §4, §12, §6, §7, §8

[10] = test system: A. laidlawii PG-8; test: Anti-mycoplasmal activity (MIC, MMC), liquid dilution method; type: cell-based; conditions: Acholeplasma laidlawii
Protocol: as §9, §10, §11

[11] = test system: mycoplasma; conditions: in words, background; cited from earlier work

For O=C(O)c1cn(C2CC2)c2cc(N3CCNCC3)c(F)cc2c1=O [Compound 2, ciprofloxacin], the MIC ([1]; PG8) was 0.39 µg/mL (≈ 1.18 µM), the MIC ([2]; G230) was 0.78 µg/mL (≈ 2.35 µM) and the MBC ([2]; G230, 120 h, read-out: MMC) was 0.78 µg/mL (≈ 2.35 µM). It also gave an MIC ([3]; CH19299) of 1.56 µg/mL (≈ 4.71 µM), an IC50 [4] of 28 µg/mL (≈ 84.5 µM) and an MIC ([5]; CH19299) of 1.56 µg/mL (≈ 4.71 µM). The MBC ([5]; CH19299, 120 h, read-out: MMC) was 1.56 µg/mL (≈ 4.71 µM), the MIC [6] was 0.39 µg/mL (≈ 1.18 µM) and the MIC ([7]; BST7) was 0.78 µg/mL (≈ 2.35 µM). For the same molecule, the MIC ([8]; PG20) was 3.13 µg/mL (≈ 9.45 µM), the MIC ([9]; G230) was 0.78 µg/mL (≈ 2.35 µM) and the MIC ([10]; PG8) was 0.39 µg/mL (≈ 1.18 µM). The MBC ([10]; PG8, 120 h, read-out: MMC) was 0.39 µg/mL (≈ 1.18 µM).

Molecule CC1COc2c(N3CCN(C)CC3)c(F)cc3c(=O)c(C(=O)O)cn1c23 (stereo not drawn) [Compound 4] has an MIC ([1]; agar dilution, A. laidlawii PG8, read-out: MIC) of 0.78 µg/mL (≈ 2.16 µM), an MIC ([3]; agar dilution, M. orale CH19299, read-out: MIC) of 1.56 µg/mL (≈ 4.32 µM) and an MIC ([6]; agar dilution, M. pnumoniae Mac, read-out: MIC) of 0.78 µg/mL (≈ 2.16 µM). It also gave an MIC ([7]; agar dilution, M. hyorhinis BST7, read-out: MIC) of 3.13 µg/mL (≈ 8.66 µM), an MIC ([8]; agar dilution, M. salivarium PG20, read-out: MIC) of 6.25 µg/mL (≈ 17.3 µM) and an MIC ([9]; agar dilution, M. arginini G230, read-out: MIC) of 0.78 µg/mL (≈ 2.16 µM).

In the case of C=C[C@]1(C)C[C@@H](OC(=O)CSCCN(CC)CC)[C@]2(C)[C@H](C)CC[C@]3(CCC(=O)[C@H]32)[C@@H](C)[C@@H]1O [tiamulin], the “minimum growth inhibitory concentration (MIC) for mycoplasma” value [11] is given as “low” and the “mode of action on mycoplasma” value [11] is given as “only act bacteriostatically and not mycoplasmacidally”.

From patent US5051419A, “Prevention or elimination of mycoplasma contamination of animal or plant cell cultures” (Dainippon Pharmaceutical Co., Ltd., priority 1988, dated 1991)
